Molecules are shown by their SMILES.

This is an account of results in patent US9593122B2, “Substituted pyrazolylpyrazole derivative and use of same as herbicide” (KYOYU AGRI CO., LTD., priority 2013, dated 2017).

What all share (assay): Paddy herbicidal activity test
Format in all cases: in vivo

The test system of assay [1] is Monochoria vaginalis. The settings on record: irrigated paddy pot, 30 days. The method, then:
(§1) Rice paddy soil was filled into a 1/10000 are pot followed by the addition of suitable amounts of water and chemical fertilizer, kneading, seeding with Echinochloa crus-galli, Monochoria vaginalis and Scirpus juncoides and maintaining in an irrigated state at a water depth of 3 cm.
(§2) Wettable powder of Target Compound (I) shown in Table 1 prepared in compliance with the preparation examples were diluted with a suitable amount of water, rice plants in the 2.0 leaf stage were transplanted during 3.5 leaf stage of Echinochloa crus-galli, and treated by dropping in chemical in the prescribed amount per are using a pipette.
(§3) After treating for 30 days in a glass greenhouse at an average atmospheric temperature of 30° C., the herbicidal efficacy thereof was investigated.
(§4) Evaluation of herbicidal efficacy was carried out by comparing growth inhibition rate (%) with an untreated group, while evaluation of phytotoxicity was carried out by comparing growth inhibition rate (%) with the state of a complete eradication group, and were evaluated at 11 levels indicated below.

Assay [2] relates to Scirpus juncoides. Conditions: irrigated paddy pot, 30 days. How it is done:
as §1, §2, §3, §4

The subject of assay [3] is Echinochloa crus-galli. Conditions: irrigated paddy pot, treated at 3.5 leaf stage of Echinochloa crus-galli, 30 days. The method, then: as §1, §2, §3, §4

With `CC(C)=CCNc1c(C#N)cnn1-c1nn2c(c1Cl)CCCC2` [Compound 13], the “Monochoria vaginalis herbicidal efficacy (growth inhibition level)” value in assay [1] (1g a.i./10a) is listed as 8 (8: 80% to less than 90%); in assay [1] (5g a.i./10a), 9 (9: 90% to less than 100%). Further, the “Scirpus juncoides herbicidal efficacy (growth inhibition level)” value in assay [2] (1g a.i./10a) and in assay [2] (5g a.i./10a) was 8 (8: 80% to less than 90%) in each case. The “Echinochloa crus-galli herbicidal efficacy (growth inhibition level)” value in assay [3] (1g a.i./10a) is on record as 9 (9: 90% to less than 100%); in assay [3] (5g a.i./10a), 10 (10: 100%).

Take `C=CCN(C(=O)C(F)(F)F)c1c(C#N)cnn1-c1nn2c(c1Cl)CCCC2` [Compound 17]: the “Monochoria vaginalis herbicidal efficacy (growth inhibition level)” value in assay [1] (1g a.i./10a) and in assay [1] (5g a.i./10a) was 8 (8: 80% to less than 90%) each time. Moreover, the “Scirpus juncoides herbicidal efficacy (growth inhibition level)” value in assay [2] (1g a.i./10a) and in assay [2] (5g a.i./10a) was 9 (9: 90% to less than 100%) throughout. Moreover, the “Echinochloa crus-galli herbicidal efficacy (growth inhibition level)” value is 9 (9: 90% to less than 100%) in assay [3] (1g a.i./10a) and 10 (10: 100%) in assay [3] (5g a.i./10a).

For `C=CCCN(C(=O)C(F)(F)F)c1c(C#N)cnn1-c1nn2c(c1Cl)CCCC2` [Compound 18], the “Monochoria vaginalis herbicidal efficacy (growth inhibition level)” value is on record as 8 (8: 80% to less than 90%) in assay [1] (1g a.i./10a) and 9 (9: 90% to less than 100%) in assay [1] (5g a.i./10a). In addition, the “Scirpus juncoides herbicidal efficacy (growth inhibition level)” value was 7 (7: 70% to less than 80%) in assay [2] (1g a.i./10a) and 8 (8: 80% to less than 90%) in assay [2] (5g a.i./10a). For the same compound, the “Echinochloa crus-galli herbicidal efficacy (growth inhibition level)” value in assay [3] (1g a.i./10a) and in assay [3] (5g a.i./10a) was 9 (9: 90% to less than 100%) in each case.

On to `C=C(C)CN(C(=O)C(F)(F)F)c1c(C#N)cnn1-c1nn2c(c1Cl)CCCC2` [Compound 19], for which the “Monochoria vaginalis herbicidal efficacy (growth inhibition level)” value in assay [1] (1g a.i./10a) and in assay [1] (5g a.i./10a) was 9 (9: 90% to less than 100%) throughout. Besides, the figures for the “Scirpus juncoides herbicidal efficacy (growth inhibition level)” value in assay [2] (1g a.i./10a) and in assay [2] (5g a.i./10a) were 7 (7: 70% to less than 80%) and 8 (8: 80% to less than 90%), respectively. The “Echinochloa crus-galli herbicidal efficacy (growth inhibition level)” value in assay [3] (1g a.i./10a) was 9 (9: 90% to less than 100%); in assay [3] (5g a.i./10a) it was 10 (10: 100%).

Regarding `N#Cc1cnn(-c2nn3c(c2Cl)CCCC3)c1N(CCC(F)=C(F)F)C(=O)C(F)(F)F` [Compound 20], the “Monochoria vaginalis herbicidal efficacy (growth inhibition level)” value in assay [1] (1g a.i./10a) is listed as 8 (8: 80% to less than 90%); in assay [1] (5g a.i./10a), 9 (9: 90% to less than 100%). Also, the “Scirpus juncoides herbicidal efficacy (growth inhibition level)” value in assay [2] (1g a.i./10a) and in assay [2] (5g a.i./10a) was 8 (8: 80% to less than 90%) each time. Also, the “Echinochloa crus-galli herbicidal efficacy (growth inhibition level)” value in assay [3] (1g a.i./10a) and in assay [3] (5g a.i./10a) was 9 (9: 90% to less than 100%) each time.

For `CC(C)=CCN(C(=O)C(F)(F)F)c1c(C#N)cnn1-c1nn2c(c1Cl)CCCC2` [Compound 25], the “Monochoria vaginalis herbicidal efficacy (growth inhibition level)” value in assay [1] (1g a.i./10a) and in assay [1] (5g a.i./10a) was 9 (9: 90% to less than 100%) throughout. The “Scirpus juncoides herbicidal efficacy (growth inhibition level)” value in assay [2] (1g a.i./10a) and in assay [2] (5g a.i./10a) was 8 (8: 80% to less than 90%) each time. Moreover, the “Echinochloa crus-galli herbicidal efficacy (growth inhibition level)” value in assay [3] (1g a.i./10a) was 9 (9: 90% to less than 100%); in assay [3] (5g a.i./10a) it was 10 (10: 100%).

Take `C=CCN(C(=O)C(F)(F)C(F)(F)F)c1c(C#N)cnn1-c1nn2c(c1Cl)CCCC2` [Compound 28]: the “Monochoria vaginalis herbicidal efficacy (growth inhibition level)” value is reported as 8 (8: 80% to less than 90%) in assay [1] (1g a.i./10a) and 10 (10: 100%) in assay [1] (5g a.i./10a). For the same compound, the “Scirpus juncoides herbicidal efficacy (growth inhibition level)” value is 8 (8: 80% to less than 90%) in assay [2] (1g a.i./10a) and 9 (9: 90% to less than 100%) in assay [2] (5g a.i./10a). Also, the “Echinochloa crus-galli herbicidal efficacy (growth inhibition level)” value in assay [3] (1g a.i./10a) and in assay [3] (5g a.i./10a) was 9 (9: 90% to less than 100%) in each case.

Turning to `C=C(C)CNc1c([N+](=O)[O-])cnn1-c1nn2c(c1Cl)CCCC2` [Compound 31], the “Monochoria vaginalis herbicidal efficacy (growth inhibition level)” value in assay [1] (1g a.i./10a) and in assay [1] (5g a.i./10a) was 9 (9: 90% to less than 100%) each time. For the same compound, the figures for the “Scirpus juncoides herbicidal efficacy (growth inhibition level)” value in assay [2] (1g a.i./10a) and in assay [2] (5g a.i./10a) were 7 (7: 70% to less than 80%) and 8 (8: 80% to less than 90%), respectively. The “Echinochloa crus-galli herbicidal efficacy (growth inhibition level)” value in assay [3] (1g a.i./10a) and in assay [3] (5g a.i./10a) was 9 (9: 90% to less than 100%) in each case.

For the compound `CC(C)=CCNc1c([N+](=O)[O-])cnn1-c1nn2c(c1Cl)CCCC2` [Compound 35], the results for the “Monochoria vaginalis herbicidal efficacy (growth inhibition level)” value in assay [1] (1g a.i./10a) and in assay [1] (5g a.i./10a) were 9 (9: 90% to less than 100%) and 10 (10: 100%), respectively. Further, the “Scirpus juncoides herbicidal efficacy (growth inhibition level)” value in assay [2] (1g a.i./10a) is listed as 8 (8: 80% to less than 90%); in assay [2] (5g a.i./10a), 10 (10: 100%). The “Echinochloa crus-galli herbicidal efficacy (growth inhibition level)” value in assay [3] (1g a.i./10a) and in assay [3] (5g a.i./10a) was 9 (9: 90% to less than 100%) in each case.

For the compound `C=CCN(C(=O)C(F)(F)F)c1c([N+](=O)[O-])cnn1-c1nn2c(c1Cl)CCCC2` [Compound 36], the results for the “Monochoria vaginalis herbicidal efficacy (growth inhibition level)” value in assay [1] (1g a.i./10a) and in assay [1] (5g a.i./10a) were 8 (8: 80% to less than 90%) and 9 (9: 90% to less than 100%), respectively. Further, the “Scirpus juncoides herbicidal efficacy (growth inhibition level)” value was 8 (8: 80% to less than 90%) in assay [2] (1g a.i./10a) and 9 (9: 90% to less than 100%) in assay [2] (5g a.i./10a). In addition, the “Echinochloa crus-galli herbicidal efficacy (growth inhibition level)” value in assay [3] (1g a.i./10a) is on record as 9 (9: 90% to less than 100%); in assay [3] (5g a.i./10a) it was 10 (10: 100%).

On to `O=C(N(C/C=C\Cl)c1c([N+](=O)[O-])cnn1-c1nn2c(c1Cl)CCCC2)C(F)(F)F` [Compound 39], for which the “Monochoria vaginalis herbicidal efficacy (growth inhibition level)” value in assay [1] (1g a.i./10a) is given as 7 (7: 70% to less than 80%); in assay [1] (5g a.i./10a), 8 (8: 80% to less than 90%). For the same compound, the “Scirpus juncoides herbicidal efficacy (growth inhibition level)” value in assay [2] (1g a.i./10a) and in assay [2] (5g a.i./10a) was 8 (8: 80% to less than 90%) each time. The “Echinochloa crus-galli herbicidal efficacy (growth inhibition level)” value in assay [3] (1g a.i./10a) was 9 (9: 90% to less than 100%); in assay [3] (5g a.i./10a), 10 (10: 100%).

On to `C=CCCNc1c(C#N)cnn1-c1nn2c(c1Br)CCCC2` [Compound 42], for which the “Monochoria vaginalis herbicidal efficacy (growth inhibition level)” value in assay [1] (1g a.i./10a) is 7 (7: 70% to less than 80%); in assay [1] (5g a.i./10a), 8 (8: 80% to less than 90%). The “Scirpus juncoides herbicidal efficacy (growth inhibition level)” value in assay [2] (1g a.i./10a) and in assay [2] (5g a.i./10a) was 8 (8: 80% to less than 90%) throughout. For the same compound, the “Echinochloa crus-galli herbicidal efficacy (growth inhibition level)” value in assay [3] (1g a.i./10a) is recorded as 8 (8: 80% to less than 90%); in assay [3] (5g a.i./10a), 9 (9: 90% to less than 100%).

As to `N#Cc1cnn(-c2nn3c(c2Br)CCCC3)c1NC/C=C\Cl` [Compound 45], the “Monochoria vaginalis herbicidal efficacy (growth inhibition level)” value in assay [1] (1g a.i./10a) and in assay [1] (5g a.i./10a) was 9 (9: 90% to less than 100%) in each case. The “Scirpus juncoides herbicidal efficacy (growth inhibition level)” value in assay [2] (1g a.i./10a) and in assay [2] (5g a.i./10a) was 9 (9: 90% to less than 100%) each time. For the same compound, the “Echinochloa crus-galli herbicidal efficacy (growth inhibition level)” value in assay [3] (1g a.i./10a) and in assay [3] (5g a.i./10a) was 9 (9: 90% to less than 100%) in each case.

On to `CC(C)=CCNc1c(C#N)cnn1-c1nn2c(c1Br)CCCC2` [Compound 48], for which the figures for the “Monochoria vaginalis herbicidal efficacy (growth inhibition level)” value in assay [1] (1g a.i./10a) and in assay [1] (5g a.i./10a) were 8 (8: 80% to less than 90%) and 10 (10: 100%), respectively. For the same compound, the “Scirpus juncoides herbicidal efficacy (growth inhibition level)” value in assay [2] (1g a.i./10a) is on record as 7 (7: 70% to less than 80%); in assay [2] (5g a.i./10a), 8 (8: 80% to less than 90%). Also, the “Echinochloa crus-galli herbicidal efficacy (growth inhibition level)” value in assay [3] (1g a.i./10a) is listed as 8 (8: 80% to less than 90%); in assay [3] (5g a.i./10a) it was 9 (9: 90% to less than 100%).

On to `C=CCN(C(=O)C(F)(F)F)c1c(C#N)cnn1-c1nn2c(c1Br)CCCC2` [Compound 49], for which the figures for the “Monochoria vaginalis herbicidal efficacy (growth inhibition level)” value in assay [1] (1g a.i./10a) and in assay [1] (5g a.i./10a) were 7 (7: 70% to less than 80%) and 9 (9: 90% to less than 100%), respectively. Besides, the “Scirpus juncoides herbicidal efficacy (growth inhibition level)” value in assay [2] (1g a.i./10a) was 8 (8: 80% to less than 90%); in assay [2] (5g a.i./10a), 9 (9: 90% to less than 100%). Also, the “Echinochloa crus-galli herbicidal efficacy (growth inhibition level)” value is listed as 8 (8: 80% to less than 90%) in assay [3] (1g a.i./10a) and 9 (9: 90% to less than 100%) in assay [3] (5g a.i./10a).
